Data as given in ChEMBL document CHEMBL1201862, “PubChem BioAssay data set” (2004).
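48-hour exposure; five concentrations; linearly interpolated endpoints. The concentration for 50% growth inhibition is given as GI50.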 Activity calls are given as the source filed them. Cut-off read from the data, not from the text of the source: active = GI50 up to about 1.1 µM and inactive = higher.

Assays:
Test in all cases: DTP human tumour cell line panel, 48 h
DU-145 = tested on: DU-145
EKVX = tested on: EKVX
SK-MEL-2 = tested on: SK-MEL-2
SR = tested on: SR
NCI-H226 = tested on: NCI-H226
NCI/ADR-RES = tested on: NCI/ADR-RES
HOP-92 = tested on: HOP-92
HOP-62 = tested on: HOP-62
RPMI-8226 = tested on: RPMI-8226
HT-29 = tested on: HT-29
MDA-MB-231 = tested on: MDA-MB-231
A549 = tested on: A549
UACC-62 = tested on: UACC-62
HL-60 = tested on: HL-60
MCF7 = tested on: MCF7
NCI-H460 = tested on: NCI-H460
LOX IMVI = tested on: LOX IMVI
T47D = tested on: T47D
COLO 205 = tested on: COLO 205
786-0 = tested on: 786-0

Row | Structure (SMILES) | GI50 (DU-145) | GI50 (EKVX) | GI50 (SK-MEL-2) | GI50 (SR) | GI50 (NCI-H226) | GI50 (NCI/ADR-RES) | GI50 (HOP-92) | GI50 (HOP-62) | GI50 (RPMI-8226) | GI50 (HT-29) | GI50 (MDA-MB-231) | GI50 (A549) | GI50 (UACC-62) | GI50 (HL-60) | GI50 (MCF7) | GI50 (NCI-H460) | GI50 (LOX IMVI) | GI50 (T47D) | GI50 (COLO 205) | GI50 (786-0)
1 | Oc1ccc(Cc2cc(Cl)cc(Cl)c2O)cc1Cl | 10.1 µM (inactive) | 19.4 µM (inactive) | 15.5 µM (inactive) | 14.2 µM (inactive) | 21.1 µM (inactive) | 18.3 µM (inactive) | 18.2 µM (inactive) | 19.2 µM (inactive) | 22.3 µM (inactive) | 20.1 µM (inactive) | 18.6 µM (inactive) | 19.1 µM (inactive) | 14.7 µM (inactive) | 1.04 µM (active) | 18.1 µM (inactive) | 17.8 µM (inactive) | 16.6 µM (inactive) | 18.4 µM (inactive) | 19 µM (inactive) | 20.3 µM (inactive)
2 | C1CNCCN2CCCNCCN(C1)CC2 | > 100 µM (inactive) | > 100 µM (inactive) | > 100 µM (inactive) | > 100 µM (inactive) | > 100 µM (inactive) | > 100 µM (inactive) | > 100 µM (inactive) | > 100 µM (inactive) | > 100 µM (inactive) | > 100 µM (inactive) | > 100 µM (inactive) | > 100 µM (inactive) | > 100 µM (inactive) |  | > 100 µM (inactive) | > 100 µM (inactive) | > 100 µM (inactive) | > 100 µM (inactive) | > 100 µM (inactive) | > 100 µM (inactive)
3 | CN(C(=O)C1=CCC2(CC1)OCCO2)c1ccccc1OS(=O)(=O)C(F)(F)F | > 100 µM (inactive) | > 100 µM (inactive) | > 100 µM (inactive) | > 100 µM (inactive) | 16.2 µM (inactive) | 53.3 µM (inactive) | > 100 µM (inactive) | 27.4 µM (inactive) | > 100 µM (inactive) |  | > 100 µM (inactive) | > 100 µM (inactive) | > 100 µM (inactive) | > 100 µM (inactive) | > 100 µM (inactive) | 85.3 µM (inactive) | 59.7 µM (inactive) | > 100 µM (inactive) | > 100 µM (inactive) | 24.3 µM (inactive)
4 | Cn1c(=O)c2c(nc(N)n2C2OC(CO)C(O)C2O)n(C)c1=O (stereo not drawn) | > 100 µM (inactive) | > 100 µM (inactive) |  | > 100 µM (inactive) | > 100 µM (inactive) | > 100 µM (inactive) | 61.9 µM (inactive) | > 100 µM (inactive) | > 100 µM (inactive) | > 100 µM (inactive) | > 100 µM (inactive) | > 100 µM (inactive) | > 100 µM (inactive) | > 100 µM (inactive) | > 100 µM (inactive) | > 100 µM (inactive) | > 100 µM (inactive) | > 100 µM (inactive) | > 100 µM (inactive) | > 100 µM (inactive)
5 | O=Cc1c(-c2ccccc2)nc2ccccc2c1O | > 100 µM (inactive) | 85.1 µM (inactive) | > 100 µM (inactive) | < 0.01 µM (active) | > 100 µM (inactive) | 52.1 µM (inactive) | > 100 µM (inactive) | 92.7 µM (inactive) | 34.7 µM (inactive) | 39.9 µM (inactive) | 64.6 µM (inactive) | 54 µM (inactive) | 55.8 µM (inactive) |  | 39.3 µM (inactive) | 48.2 µM (inactive) | 42.2 µM (inactive) | 64.6 µM (inactive) | 26.7 µM (inactive) | 49.2 µM (inactive)
6 | COc1ccc(-n2c(N)c(C#N)c(C#N)c2-c2cccc([N+](=O)[O-])c2)cc1 | 43.3 µM (inactive) | 26 µM (inactive) | 1.77 µM (inactive) | 18.7 µM (inactive) | > 100 µM (inactive) | > 100 µM (inactive) | 15.3 µM (inactive) | 67.5 µM (inactive) | 5.37 µM (inactive) | 25.3 µM (inactive) | 67 µM (inactive) | 1.53 µM (inactive) | 17.5 µM (inactive) | > 100 µM (inactive) | 61.5 µM (inactive) |  | 48.3 µM (inactive) | 35.2 µM (inactive) | > 100 µM (inactive) | 33.9 µM (inactive)
7 | Cc1sc2nc3n(c(=O)c2c1C)N=C(c1ccccc1)CS3 | > 100 µM (inactive) | > 100 µM (inactive) |  | > 100 µM (inactive) | > 100 µM (inactive) | > 100 µM (inactive) | > 100 µM (inactive) | 48.3 µM (inactive) | > 100 µM (inactive) | > 100 µM (inactive) | > 100 µM (inactive) | > 100 µM (inactive) | > 100 µM (inactive) | > 100 µM (inactive) | > 100 µM (inactive) | > 100 µM (inactive) | > 100 µM (inactive) | > 100 µM (inactive) | > 100 µM (inactive) | 47.5 µM (inactive)
8 | COc1cccc2c1-c1nc(N)c3c(OC)cccc3c1C2=O | > 100 µM (inactive) | 54.1 µM (inactive) | > 100 µM (inactive) | > 100 µM (inactive) | 48.3 µM (inactive) | > 100 µM (inactive) | > 100 µM (inactive) | 22.8 µM (inactive) | > 100 µM (inactive) | 28.8 µM (inactive) | 19.1 µM (inactive) | > 100 µM (inactive) | > 100 µM (inactive) | 19.6 µM (inactive) | > 100 µM (inactive) |  | 59.7 µM (inactive) | > 100 µM (inactive) | > 100 µM (inactive) | 35.9 µM (inactive)
9 | O=C(Cc1nc2ncccc2[nH]c1=O)c1c[nH]c2ccccc12 | 17.5 µM (inactive) | 21.4 µM (inactive) | 14.9 µM (inactive) | 30 µM (inactive) |  | 29.4 µM (inactive) | 17.7 µM (inactive) | 18.7 µM (inactive) | 16.7 µM (inactive) | 23 µM (inactive) | 16.7 µM (inactive) | 20 µM (inactive) | 16.8 µM (inactive) | 32.1 µM (inactive) | 16.9 µM (inactive) | 17.3 µM (inactive) | 20.7 µM (inactive) | 17.6 µM (inactive) | 16.3 µM (inactive) | 18.2 µM (inactive)
10 | O=c1cc(CC(O)(C(F)(F)Cl)C(F)(F)Cl)[nH]n1-c1ccccc1 | > 100 µM (inactive) | > 100 µM (inactive) |  | > 100 µM (inactive) | 66.4 µM (inactive) | > 100 µM (inactive) | 20.7 µM (inactive) | > 100 µM (inactive) | > 100 µM (inactive) | > 100 µM (inactive) | > 100 µM (inactive) | > 100 µM (inactive) | > 100 µM (inactive) | > 100 µM (inactive) | > 100 µM (inactive) | > 100 µM (inactive) | > 100 µM (inactive) | 52.6 µM (inactive) | > 100 µM (inactive) | > 100 µM (inactive)
11 | CC(C)=CC[C@]12CCN(C)[C@H]1N(S(=O)(=O)c1ccccc1)c1ccccc12 | > 30.8 µM (inactive) | > 24.2 µM (inactive) | 15.5 µM (inactive) | 20.7 µM (inactive) | > 38.5 µM (inactive) | > 82.8 µM (inactive) | 3.38 µM (inactive) | > 45.4 µM (inactive) | 29.9 µM (inactive) | > 46.5 µM (inactive) | > 52.4 µM (inactive) |  | > 35.6 µM (inactive) | 28.4 µM (inactive) | > 42.8 µM (inactive) | > 40.4 µM (inactive) | > 37.1 µM (inactive) | 9.73 µM (inactive) |  | 42.3 µM (inactive)
12 | N#Cc1nc(C2CC2)oc1N | > 100 µM (inactive) | > 100 µM (inactive) | > 100 µM (inactive) | > 100 µM (inactive) | > 100 µM (inactive) | > 100 µM (inactive) | > 100 µM (inactive) | > 100 µM (inactive) | > 100 µM (inactive) | > 100 µM (inactive) | > 100 µM (inactive) | > 100 µM (inactive) | > 100 µM (inactive) |  | > 100 µM (inactive) |  | > 100 µM (inactive) | > 100 µM (inactive) | > 100 µM (inactive) | > 100 µM (inactive)
13 | COc1cc(/C=C/C(=O)OC[C@H](Br)[C@H](OC(C)=O)c2ccc3c(c2)OCO3)cc(OC)c1OC | > 100 µM (inactive) | > 100 µM (inactive) | > 100 µM (inactive) | 48.8 µM (inactive) | > 100 µM (inactive) | 57.7 µM (inactive) | > 100 µM (inactive) | > 100 µM (inactive) | 61.1 µM (inactive) | > 100 µM (inactive) | > 100 µM (inactive) | 92.7 µM (inactive) | > 100 µM (inactive) |  | > 100 µM (inactive) |  | > 100 µM (inactive) | 52.5 µM (inactive) | > 100 µM (inactive) | > 100 µM (inactive)
14 | CCC1=C(CC2NCCc3ccccc32)CC2c3cc(OC)c(OC)cc3CCN2C1 (stereo not drawn) | 0.356 µM (active) | 0.305 µM (active) | 0.603 µM (active) | 0.342 µM (active) | 0.757 µM (active) | 1.3 µM (inactive) | 0.675 µM (active) | 0.627 µM (active) | 0.392 µM (active) | 0.284 µM (active) | 0.358 µM (active) | 0.343 µM (active) | 1.29 µM (inactive) | 0.847 µM (active) | 0.292 µM (active) | 0.3 µM (active) | 0.359 µM (active) | 0.514 µM (active) |  | 0.338 µM (active)
15 | CCCc1cc(=O)oc2c(C=O)c(O)cc(O)c12 | 27.5 µM (inactive) | 21.3 µM (inactive) | 18.2 µM (inactive) | 27.8 µM (inactive) |  | 27.4 µM (inactive) | 18.7 µM (inactive) | 22.3 µM (inactive) | 28 µM (inactive) | 22.1 µM (inactive) | 17.5 µM (inactive) | 31.7 µM (inactive) | 19.8 µM (inactive) | 18.3 µM (inactive) | 27 µM (inactive) | 24.8 µM (inactive) | 20 µM (inactive) | 23.1 µM (inactive) | 17.7 µM (inactive) | 30.1 µM (inactive)
